# According to US20060134102A1, “Lymphotoxin beta receptor agents in combination with chemotherapeutic agents” (Biogen Idec MA Inc., priority 2002, published 2006):
# System: KM-20L2 human colorectal adenocarcinoma
# Test: KM-20L2 xenograft model: growth of established KM-20L2 human colorectal tumors in athymic nude mice (tumor volume/weight, % T/C, Fa, Combination Index)
# Format: in vivo
substance,measurement,setting,value
"huCBE11: humanized anti-LT-β-R agonist antibody (LTβ receptor-activating mAb), described in WO 02/30986",Median Effect Dose,"Combined (1:0.63 huCBE11:Camptosar), dose of the labelled agent in the combination, Day 13",10.7 mg/kg
same,Median Effect Dose,"Combined (1:0.63 huCBE11:Camptosar), dose of the labelled agent in the combination, Day 16",2.6 mg/kg
same,Median Effect Dose,"Combined (1:0.63 huCBE11:Camptosar), dose of the labelled agent in the combination, Day 20",1.0 mg/kg
same,Median Effect Dose,"Combined (1:0.63 huCBE11:Camptosar), dose of the labelled agent in the combination, Day 23",1.1 mg/kg
same,Median Effect Dose,"Combined (1:0.63 huCBE11:Camptosar), dose of the labelled agent in the combination, Day 27",1.5 mg/kg
same,Median Effect Dose,"Combined (1:0.63 huCBE11:Camptosar), dose of the labelled agent in the combination, Day 30",1.8 mg/kg
same,Median Effect Dose,"Combined (1:0.63 huCBE11:Camptosar), dose of the labelled agent in the combination, Day 34",1.8 mg/kg
same,Median Effect Dose,"Combined (1:0.63 huCBE11:Camptosar), dose of the labelled agent in the combination, Day 37",1.6 mg/kg
same,Median Effect Dose,"Combined (1:0.63 huCBE11:Camptosar), dose of the labelled agent in the combination, Day 41",1.5 mg/kg
same,Median Effect Dose,"Given Separately, Day 13",174 mg/kg
same,Median Effect Dose,"Given Separately, Day 16",981 mg/kg
same,Median Effect Dose,"Given Separately, Day 20",32.7 mg/kg
same,Median Effect Dose,"Given Separately, Day 23",9.0 mg/kg
same,Median Effect Dose,"Given Separately, Day 27",2.1 mg/kg
same,Median Effect Dose,"Given Separately, Day 30",3.8 mg/kg
same,Median Effect Dose,"Given Separately, Day 34",3.6 mg/kg
same,Median Effect Dose,"Given Separately, Day 37",6.6 mg/kg
same,Median Effect Dose,"Given Separately, Day 41",3.0 mg/kg
same,Median Effect Dose,Given Separately; Day 16,2077 mg/kg
same,Median Effect Dose,Given Separately; Day 20,9.5 mg/kg
same,Median Effect Dose,Given Separately; Day 23,4.8 mg/kg
same,Median Effect Dose,Given Separately; Day 27,3.3 mg/kg
same,Median Effect Dose,Given Separately; Day 30,3.8 mg/kg
same,Median Effect Dose,Given Separately; Day 34,3.2 mg/kg
same,Median Effect Dose,Given Separately; Day 37,2.7 mg/kg
same,Median Effect Dose,Given Separately; Day 41,2.4 mg/kg
same,Median Effect Dose,Given Separately; Day 43,2.4 mg/kg
same,Median Effect Dose,dose of the labelled agent when huCBE11 and Gemcitabine Combined (4:5); Day 16,3.6 mg/kg
same,Median Effect Dose,dose of the labelled agent when huCBE11 and Gemcitabine Combined (4:5); Day 20,1.3 mg/kg
same,Median Effect Dose,dose of the labelled agent when huCBE11 and Gemcitabine Combined (4:5); Day 23,0.6 mg/kg
same,Median Effect Dose,dose of the labelled agent when huCBE11 and Gemcitabine Combined (4:5); Day 27,0.7 mg/kg
same,Median Effect Dose,dose of the labelled agent when huCBE11 and Gemcitabine Combined (4:5); Day 30,0.6 mg/kg
same,Median Effect Dose,dose of the labelled agent when huCBE11 and Gemcitabine Combined (4:5); Day 34,0.6 mg/kg
same,Median Effect Dose,dose of the labelled agent when huCBE11 and Gemcitabine Combined (4:5); Day 37,0.4 mg/kg
same,Median Effect Dose,dose of the labelled agent when huCBE11 and Gemcitabine Combined (4:5); Day 41,0.6 mg/kg
same,Median Effect Dose,dose of the labelled agent when huCBE11 and Gemcitabine Combined (4:5); Day 43,0.4 mg/kg
same,% T/C,hCBE11 2 mg/kg; Days 41 to 55,≤ 42%
same,% T/C,hCBE11 4 mg/kg; Days 50 and 55,≤ 42%
same,Mean Fraction Affected (Fa),"huCBE11 0.2 mg/kg alone, Day 9",−0.026
same,Mean Fraction Affected (Fa),"huCBE11 0.2 mg/kg alone, Day 13",0.003
same,Mean Fraction Affected (Fa),"huCBE11 0.2 mg/kg alone, Day 16",0.125
same,Mean Fraction Affected (Fa),"huCBE11 0.2 mg/kg alone, Day 20",0.249
same,Mean Fraction Affected (Fa),"huCBE11 0.2 mg/kg alone, Day 23",0.294
same,Mean Fraction Affected (Fa),"huCBE11 0.2 mg/kg alone, Day 27",0.377
same,Mean Fraction Affected (Fa),"huCBE11 0.2 mg/kg alone, Day 30",0.369
same,Mean Fraction Affected (Fa),"huCBE11 0.2 mg/kg alone, Day 34",0.345
same,Mean Fraction Affected (Fa),"huCBE11 0.2 mg/kg alone, Day 37",0.372
same,Mean Fraction Affected (Fa),"huCBE11 0.2 mg/kg alone, Day 41",0.381
same,Mean Fraction Affected (Fa),huCBE11 0.2 mg/kg; Day 9,0.063
same,Mean Fraction Affected/Fraction Unaffected (Fa/Fu),huCBE11 0.2 mg/kg; Day 9,0.067
same,Mean Tumor Volume,huCBE11 0.2 mg/kg; Day 9,104.8 cubic mm
same,Mean Tumor Volume Decrease,huCBE11 0.2 mg/kg; Day 9,7.0 cubic mm
same,Mean Fraction Affected (Fa),huCBE11 0.2 mg/kg; Day 13,0.071
same,Mean Fraction Affected/Fraction Unaffected (Fa/Fu),huCBE11 0.2 mg/kg; Day 13,0.076
same,Mean Tumor Volume,huCBE11 0.2 mg/kg; Day 13,160.4 cubic mm
same,Mean Tumor Volume Decrease,huCBE11 0.2 mg/kg; Day 13,12.2 cubic mm
same,Mean Fraction Affected (Fa),huCBE11 0.2 mg/kg; Day 16,0.055
same,Mean Fraction Affected/Fraction Unaffected (Fa/Fu),huCBE11 0.2 mg/kg; Day 16,0.058
same,Mean Tumor Volume,huCBE11 0.2 mg/kg; Day 16,250.5 cubic mm
same,Mean Tumor Volume Decrease,huCBE11 0.2 mg/kg; Day 16,14.5 cubic mm
same,Mean Fraction Affected (Fa),huCBE11 0.2 mg/kg; Day 20,0.073
same,Mean Fraction Affected/Fraction Unaffected (Fa/Fu),huCBE11 0.2 mg/kg; Day 20,0.078
same,Mean Tumor Volume,huCBE11 0.2 mg/kg; Day 20,371.9 cubic mm
same,Mean Tumor Volume Decrease,huCBE11 0.2 mg/kg; Day 20,29.1 cubic mm
same,Mean Fraction Affected (Fa),huCBE11 0.2 mg/kg; Day 23,0.016
same,Mean Fraction Affected/Fraction Unaffected (Fa/Fu),huCBE11 0.2 mg/kg; Day 23,0.016
same,Mean Tumor Volume,huCBE11 0.2 mg/kg; Day 23,518.7 cubic mm
same,Mean Tumor Volume Decrease,huCBE11 0.2 mg/kg; Day 23,8.5 cubic mm
same,Mean Fraction Affected/Fraction Unaffected (Fa/Fu),huCBE11 0.2 mg/kg; Day 27,−0.008
same,Mean Tumor Volume,huCBE11 0.2 mg/kg; Day 27,673.8 cubic mm
same,Mean Tumor Volume Decrease,huCBE11 0.2 mg/kg; Day 27,−5.2 cubic mm
same,Mean Fraction Affected (Fa),huCBE11 0.2 mg/kg; Day 30,0.030
same,Mean Fraction Affected/Fraction Unaffected (Fa/Fu),huCBE11 0.2 mg/kg; Day 30,0.030
same,Mean Tumor Volume,huCBE11 0.2 mg/kg; Day 30,792.1 cubic mm
same,Mean Tumor Volume Decrease,huCBE11 0.2 mg/kg; Day 30,24.1 cubic mm
same,Mean Fraction Affected (Fa),huCBE11 0.2 mg/kg; Day 34,0.118
same,Mean Fraction Affected/Fraction Unaffected (Fa/Fu),huCBE11 0.2 mg/kg; Day 34,0.134
same,Mean Tumor Volume,huCBE11 0.2 mg/kg; Day 34,926.4 cubic mm
same,Mean Tumor Volume Decrease,huCBE11 0.2 mg/kg; Day 34,123.9 cubic mm
same,Mean Fraction Affected (Fa),huCBE11 0.2 mg/kg; Day 37,0.132
same,Mean Fraction Affected/Fraction Unaffected (Fa/Fu),huCBE11 0.2 mg/kg; Day 37,0.152
same,Mean Tumor Volume,huCBE11 0.2 mg/kg; Day 37,1048.5 cubic mm
same,Mean Tumor Volume Decrease,huCBE11 0.2 mg/kg; Day 37,159.5 cubic mm
same,Mean Fraction Affected (Fa),huCBE11 0.2 mg/kg; Day 41,0.120
same,Mean Fraction Affected/Fraction Unaffected (Fa/Fu),huCBE11 0.2 mg/kg; Day 41,0.137
same,Mean Tumor Volume,huCBE11 0.2 mg/kg; Day 41,1266.0 cubic mm
same,Mean Tumor Volume Decrease,huCBE11 0.2 mg/kg; Day 41,173.4 cubic mm
same,Mean Fraction Affected (Fa),huCBE11 0.2 mg/kg; Day 43,0.096
same,Mean Fraction Affected/Fraction Unaffected (Fa/Fu),huCBE11 0.2 mg/kg; Day 43,0.107
same,Mean Tumor Volume,huCBE11 0.2 mg/kg; Day 43,1452.0 cubic mm
same,Mean Tumor Volume Decrease,huCBE11 0.2 mg/kg; Day 43,154.7 cubic mm
same,Mean Fraction Affected (Fa),"huCBE11 2 mg/kg alone, Day 9",0.101
same,Mean Fraction Affected (Fa),"huCBE11 2 mg/kg alone, Day 13",0.137
same,Mean Fraction Affected (Fa),"huCBE11 2 mg/kg alone, Day 16",0.322
same,Mean Fraction Affected (Fa),"huCBE11 2 mg/kg alone, Day 20",0.458
same,Mean Fraction Affected (Fa),"huCBE11 2 mg/kg alone, Day 23",0.497
same,Mean Fraction Affected (Fa),"huCBE11 2 mg/kg alone, Day 27",0.542
same,Mean Fraction Affected (Fa),"huCBE11 2 mg/kg alone, Day 30",0.524
same,Mean Fraction Affected (Fa),"huCBE11 2 mg/kg alone, Day 34",0.541
same,Mean Fraction Affected (Fa),"huCBE11 2 mg/kg alone, Day 37",0.485
same,Mean Fraction Affected (Fa),"huCBE11 2 mg/kg alone, Day 41",0.541
same,"% T/C, lowest observed",huCBE11 2 mg/kg and 4 mg/kg; dose ranging study,> 42%
